What was measured:
Format in all cases: cell-based, human
[1] = tested on: T cell lines primed in vitro to Der f I; assay: secondary proliferation of Der f I-primed T cell lines (Examples VI, VII, XI); details: for T cell response to Der p I peptides: Der f I primed, 8 positive experiments, FIG. 8
How it was run: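 PBMC from house dust mite-allergic patients were primed in vitro with recombinant or affinity-purified Der f I at 20 μg/ml (or 10 μg/ml), then rechallenged with Der f I peptides. Antigen-presenting cells were x-irradiated autologous PBMC (3500 Rads) or EBV-transformed B cells (25,000 Rads). Read-out was T cell proliferation.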

[2] = tested on: T cell lines primed in vitro with Der p I; assay: T cell proliferation with fine map and modified Group I peptides (Example XIV); details: for positive T cell responses, modified peptides: 18 T cell lines, affinity purified Der p I primed, FIG. 31a
Method: Long term T cell lines were established by stimulation of 2×10^6 PBL/ml in bulk cultures of complete medium (RPMI-1640, 2 mM L-glutamine, 100 U/ml penicillin/streptomycin, 5×10^-5 M 2-mercaptoethanol, and 10 mM HEPES supplemented with 5% heat inactivated human AB serum) with 30 μg/ml of purified native Der p I or Der p II for 5-6 days at 37° C. in a humidified 5% CO2 incubator to select for house dust mite protein allergen reactive T cells. This amount of priming antigen was determined to be optimal for the activation of T cells from house dust mite allergic patients. Viable cells were purified by LSM centrifugation and cultured in complete medium supplemented with 5 units recombinant human IL-2/ml and 5 units recombinant human IL-4/ml for up to three weeks until the cells no longer responded to lymphokines and were considered "rested". The ability of the T cells to proliferate to selected peptides, purified Der p I or Der p II, or positive (PHA) controls or negative controls (medium only) was then assessed. For assay, 2×10^4 rested cells were restimulated in the presence of 2×10^4 autologous Epstein-Barr virus (EBV)-transformed B cells (prepared as described below) (gamma-irradiated with 25,000 RADS) or with 5×10^4 autologous PBMs (gamma-irradiated with 3500 RADS), with 2-50 μg/ml of purified native Der p I or Der p II in a volume of 200 μl complete medium in duplicate or triplicate wells in 96-well round bottom plates for 3 days. Each well then received 1 μCi tritiated thymidine for 16-20 hours. The counts incorporated were collected onto glass fiber filter mats and processed for liquid scintillation counting. […] The titrations were used to optimize the dose of peptides in T cell assays.
The maximum response in a titration of each peptide is expressed as the stimulation index (S.I.). The S.I. is the counts per minute (CPM) incorporated by cells in response to peptide, divided by the CPM incorporated by cells in medium only. […] The positive results were used in calculating mean stimulation indices for each peptide for the individual patient tested.
The above procedure was followed with 18 patients in the studies using peptides derived from Der p I and Der f I (FIGS. 31a-b), and 21 patients in the studies with Der p II peptides (FIGS. 32a-b). Individual patient results were used in calculating the mean S.I. for each peptide if the patient responded to the Der p I or Der p II protein at an S.I. of 2.0 or greater and the patient responded to at least one peptide derived from a house dust mite allergen at an S.I. f 2.0 or greater. A summary of positive experiments from the patients tested is shown in FIGS. 32a and 32b and FIGS. 33a and 33b. The bars represent the positivity index. […] In parenthesis above each bar are the mean stimulation indices for each peptide or protein for the group of patients tested.
Autologous EBV-transformed cell lines were γ-irradiated with 25,000 Rad and used as antigen presenting cells in secondary proliferation assays and secondary bulk stimulations. These EBV-transformed cell lines were made by incubating 5×10^6 PBL with 1 ml of B-59/8 Marmoset cell line (ATCC CRL1612, American Type Culture Collection, Rockville, Md.) conditioned medium in the presence of 1 μg/ml phorbol 12-myristate 13-acetate (PMA) at 37° C. for 60 minutes in 12×75 mm polypropylene round-bottom Falcon snap cap tubes (Becton Dickinson Labware, Lincoln Park, N.J.). These cells were then diluted to 1.25×10^6 cells/ml in RPMI-1640 as described above except supplemented with 10% heat-inactivated fetal bovine serum and cultured in 200 μl aliquots in flat bottom culture plates until visible colonies were detected. They were then transferred to larger wells until the cell lines were established.

[3] = tested on: PBMC from mite-allergic patient; assay: primary T cell (PBMC) proliferation, mite-allergic patient, tritiated thymidine; details: medium 1071 ± 30
How it was run: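 Ficoll-purified PBMC (5×10^4/well, triplicate) from one mite-allergic donor cultured 7 days at 37 °C with graded concentrations of purified Der p I, Der p II or their peptides in RPMI-1640 plus 5% human AB serum. 1 μCi ^3H-thymidine added for 16 h; CPM counted, stimulation index = antigen CPM/medium-only CPM.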

Substance: DF I-22.2: VAATESAYLAYRNTSLDLSEQELVD, amino acid residues 40-64 of Der f I
- stimulation index, rank in group ([1]; 9 patients, FIG. 16a / 16b): highest stimulation index
- T cell response, Group I peptides ([2]; FIGS. 31a-b): positive responses

Substance: DP I-1: Der p I peptide, amino acid residues 1-20 (TNACSINGNAPAEIDLRQMR)
- CPM ± S.D. ([3]; 10 μg/ml): 1099 ± 48 CPM
- CPM ± S.D. ([3]; 30 μg/ml): 3527 ± 73 CPM
- CPM ± S.D. ([3]; 100 μg/ml): 2746 ± 81 CPM
- T cell response to Der p I peptides [1]: respond significantly
- T cell response, Group I peptides ([2]; FIGS. 31a-b): positive response

Substance: DP I-3: Der p I peptide (TVTPIRMQGGCGSCWAFSGVAATESAYLA)
- CPM ± S.D. ([3]; 10 μg/ml): 2608 ± 52 CPM
- CPM ± S.D. ([3]; 30 μg/ml): 1561 ± 13 CPM
- CPM ± S.D. ([3]; 100 μg/ml): 5252 ± 67 CPM
- T cell response to Der p I peptides [1]: respond significantly

Substance: DP I-21.2: Der p I peptide; unique peptide (SINGNAPAEIDLRQMRTVTPIRMQ)
- T cell response, Group I peptides ([2]; FIGS. 31a-b): positive response
- positivity index, comparison ([2]; FIGS. 31a-b): higher positivity index then either of the overlapping peptides, DP I-1 and DP I-2

Substance: DP I-23.31: modified Der p I peptide; unique peptide (DEEGVVQESYYRYVAREQSCRRPNAE)
- positive T cell responses, modified peptides [2]: all eighteen T cell lines responded positively
- T cell response, Group I peptides ([2]; FIGS. 31a-b): positive T cell studies

Substance: DP I-26.6: modified Der p I peptide; unique peptide (DEGIKDLDAFRHYDGRTIIQRDNGYE)
- positive T cell responses, modified peptides [2]: all eighteen T cell lines responded positively
- T cell response, Group I peptides ([2]; FIGS. 31a-b): positive T cell studies

From patent US5968526A, “T cell epitopes of the major allergens from Dermatophagoides (house dust mite)” (Immulogic Pharamaceutical Corporation, priority 1995, dated 1999)
